In article PMC9911168, “Cytotoxic and pro-apoptotic effects of botanical drugs derived from the indigenous cultivated medicinal plant Paris polyphylla var. yunnanensis” (Frontiers in Pharmacology, 2023):
Values joined by “and” are separate entries in the source; they are usually repeats but may differ in a detail not shown here. Identical values can stand only once. “Also recorded” adds a separate entry of the source. Like-named read-outs stand apart in the source and are kept apart here. Values belong to the compound of their own block, whether it stands above or below them.

Experiments:
Assay type in all cases: cell-based, human
[1] = test system: SK-HEP-1; test: MTS cell viability assay, SK-HEP-1; details: liver cancer cell line SK-HEP-1, MTS, 48 h; for IC50: read-out: IC50 (±SD) SK-HEP-1
Experimental: (§1) The effects of the extracts and isolated saponins on cell growth were evaluated by the MTS assay (3-(4,5-dimethylthiazol-2-yl)-5(3-carboxymethoxyphenyl)-2-(4-sulfopheny)-2H-tetrazolium; Promega, Madison, WI, United States) on human tumor cell lines ([Mosmann, 1983]; [Cory et al., 1991]; [Malich et al., 1997]). In a test experiment of cell inhibition, the cell inhibition effects of six crude extracts (100 μg/mL) and six isolated saponins (40 μM) were roughly measured to ascertain whether to measure the IC50 value by MTS assay.
(§2) Each well of a 96-well plate (Multiskan Fc, Therm) was seeded with 100 μL cells at a density of 3,000–5,000 cells per well, with the cell suspension containing 10% (v/v) fetal bovine serum (DMEM or RMPI1640, Biological Industries, Kibbutz Beit-Haemek, Israel). After 12–24 h of inoculation and culture at 37°C, the extracts or saponins were added at the indicated concentrations after being dissolved in dimethyl sulfoxide (DMSO, Biological Industries, Kibbutz Beit-Haemek, Israel) in a final volume of 200 μL per well, each in triplicate. The six crude extracts were added at concentrations of 100, 20, 4, 0.8, and 0.16 μg/mL; the six isolated saponins were added at concentrations of 10, 5, 2.5, 1.25, 0.625, and 0.3125 μM. After culture for 48 h at 37°C, 20 μL of MTS solution and 100 μL of DMEM were added to each well; three blank wells were set aside with 20 μL MTS solution and 100 μL DMEM. After an incubation for another 2–4 h, the absorbance at 492 nm was measured. Cisplatin and Paclitaxel (MeilunBio) were used as a positive control in each experiment. The cell growth curve was drawn with the concentration as the abscissa and the cell survival rate as the ordinate. The IC50 value of each saponin was calculated by the two-point method ([Reed and Muench, 1938]).

[2] = test system: SMMC-7721; test: MTS cell viability assay, SMMC-7721; details: liver cancer cell line SMMC-7721, MTS, 48 h; for IC50: read-out: IC50 (±SD) SMMC-7721
Experimental: as §1, §2

[3] = test system: HepG2; test: MTS cell viability assay, HepG2; details: liver cancer cell line HepG2, MTS, 48 h; for IC50: read-out: IC50 (±SD) HepG2
Experimental: as §1, §2

[4] = test system: A549; test: MTS cell viability assay, A549; details: NSCLC cell line A549, MTS, 48 h; for IC50: read-out: IC50 (±SD) A549
Experimental: as §1, §2

[5] = test system: LO2; test: MTS cell viability assay, normal liver cell LO2; details: normal liver cell LO2, MTS, read-out: IC50 (±SD) LO2
Experimental: (§3) Three human liver cancer cell lines (SMMC-7721, HepG2, and SK-HEP-1) and the non-small-cell lung cancer (NSCLC) cell line A549 were obtained from ATCC (Manassas, VA, United States). Normal human cell lines (liver cell line LO2 and lung cell line BEAS-2B) were obtained from ATCC (Manassas, VA, United States). Cells were cultured in RMPI-1640 or DMEM medium (Biological Industries, Kibbutz Beit-Haemek, Israel) supplemented with 10% (v/v) fetal bovine serum (Biological Industries) at 37°C in a humidified atmosphere with 5% (v/v) CO2.
as §1, §2

[6] = test system: BEAS-2B; test: MTS cell viability assay, normal lung cell BEAS-2B; details: normal lung cell BEAS-2B, MTS, read-out: IC50 (±SD) BEAS-2B
Experimental: as §3, §1, §2

[7] = test system: A549 cells; test: Cell cycle analysis (PI staining, flow cytometry), A549; details: A549, 24 h; saponins 1 and 5 at 0.5 μM, other four at 1 μM
Experimental: (§4) Cell cycle distribution was determined by propidium iodide (PI, BD, Pharmingen) staining ([Kong et al., 2016]; [Wei et al., 2021]). Briefly, three cancer cell lines were cultured in six-well plates at a density of 3 × 10^5 cells per well for 24 h before treatment with each of the six isolated saponins at the indicated concentrations for 24 h. The cells were collected, centrifuged, and washed twice with ice-cold PBS. Cells were fixed in 70% (v/v) ice-cold ethanol at 4°C overnight and washed again in PBS twice. The cells were incubated with 100 μL RNase A at 37°C for 30 min in the dark, after which 400 μL PI was added to the cells with RNase A in the dark at 4°C for 15 min. The cell cycle stage was analyzed by flow cytometry (BD, FACSCelesta, United States) with FLOWJO software (FlowJo, Ashland, OR, United States).

[8] = test system: HepG2 cells; test: Apoptosis by annexin V-FITC/PI staining, HepG2; details: HepG2, saponins 5 μM, Figure 7
Experimental: (§5) Double staining with annexin V-fluorescein isothiocyanate (FITC) and PI was used to determine the effects of the six saponins on cell apoptosis by flow cytometry ([Homburg et al., 1995]; [Vermes et al., 1995]; [Casciola-Rosen et al., 1996]). The effects of the six isolated saponins on apoptosis were determined using an annexin V-FITC apoptosis kit (BD, Pharmingen); the chemotherapy drug doxorubicin (DOX, Beyotime Institute of Biotechnology, Shanghai, China) was used as the positive control. Cells were cultured in six-well plates at a density of 3 × 10^5 cells per well for 24 h before being treated with each of the six isolated saponins at the indicated concentrations for 24 h. The cells were collected, centrifuged, and washed twice with ice-cold phosphate-buffered saline (PBS). The cells were stained with annexin V-FITC and PI for 15 min in the dark at room temperature before analysis by flow cytometry (BD, FACSCelesta, America). Annexin V-FITC^+ and PI^+ (Q2) were considered late-stage apoptotic cells, while annexin V-FITC^+ and PI^− (Q3) cells were considered early-stage apoptotic cells. Annexin V-FITC^– and PI^+ (Q1) were necrotic or mechanically damaged cells, and annexin V-FITC^– and PI^− (Q4) cells were healthy living cells.

[9] = test system: HepG2 cells; test: Cell cycle analysis (PI staining, flow cytometry), HepG2; details: HepG2, 24 h, 1 μM
Experimental: as §4

[10] = test system: A549 cells; test: Apoptosis by annexin V-FITC/PI staining, A549; details: A549, saponins 5 μM, Figure 7
Experimental: as §5

[11] = test system: SMMC-7721 cells; test: Apoptosis by annexin V-FITC/PI staining, SMMC-7721; details: SMMC-7721, saponins 5 μM, Figure 7
Experimental: as §5

Compound: N.N.[Cl][Pt][Cl] [Cisplatin, reference compound]
IC50 (±SD) SK-HEP-1 [1]: 8.79 ± 0.49 µg/mL
IC50 [1]: 21000 ± 710 nM
IC50 (±SD) SMMC-7721 [2]: 5.05 ± 0.12 µg/mL
IC50 [2]: 17800 ± 570 nM
IC50 (±SD) HepG2 [3]: 1.90 ± 0.13 µg/mL
IC50 [3]: 5670 ± 100 nM
IC50 (±SD) A549 [4]: 16.74 ± 0.68 µg/mL
IC50 [4]: 26100 ± 520 nM
IC50 [5]: 13800 ± 480 nM
IC50 [6]: > 40000 nM

Compound: CC1CCC2(OC1)OC1CC3C4CC=C5CC(OC6OC(CO)C(OC7OC(CO)C(O)C7O)C(O)C6OC6OC(C)C(O)C(O)C6O)CCC5(C)C4CCC3(C)C1(O)C2C [saponin 2, pennogenin-3-O-α-L-arabinofuranosyl-(1→4)-[α-L-rhamnopyranosyl-(1→2)]-β-D-glycopyranoside]
cell cycle phase with increased proportion of cells compared to DMSO control [7]: S and G2/M phases
apoptosis rate (induction of apoptosis, in words) [8]: next
IC50 ([1]; Homo sapiens, SK-HEP1): 1580 ± 80 nM
IC50 ([2]; Homo sapiens): 1880 ± 70 nM
cell cycle phase with increased proportion of cells compared to DMSO control [9]: S and G2/M phases
IC50 ([3]; Homo sapiens): 2140 ± 10 nM
apoptosis rate (induction of apoptosis, in words) [10]: strong apoptosis
IC50 ([4]; Homo sapiens): 1250 ± 20 nM
IC50 ([5]; Homo sapiens, L02): 2330 ± 100 nM
IC50 ([6]; Homo sapiens): 4950 ± 40 nM

Compound: pennogenin-3-O-α-L-rhamnopyranosyl-(1→2)-[α-L-rhamnopyranosyl-(1→4)]-β-D-glucopyranoside [saponin 1]
cell cycle phase with increased proportion of cells compared to DMSO control [7]: G2/M phase
apoptosis rate (induction of apoptosis, in words) [8]: next and stronger apoptosis than the positive control DOX
apoptosis rate (induction of apoptosis, in words) ([8]; listed as Saponin 1): also effective
IC50 [1]: 900 ± 40 nM
IC50 [2]: 760 ± 30 nM
increase of proportion of cells in S phase compared to DMSO control [9]: 23.7%
IC50 [3]: 1780 ± 10 nM
apoptosis rate (induction of apoptosis, in words) [10]: stronger apoptosis than the positive control DOX
apoptosis rate (induction of apoptosis, in words) ([10]; listed as Saponin 1): most effective in inducing apoptosis
apoptosis rate (induction of apoptosis, in words) [11]: stronger apoptosis than the positive control DOX
apoptosis rate (induction of apoptosis, in words) ([11]; listed as Saponin 1): most effective in inducing apoptosis
IC50 [4]: 980 ± 10 nM
IC50 [5]: 1790 ± 100 nM
IC50 [6]: 1190 ± 10 nM

Compound: CC1CCC2(OC1)OC1CC3C4CC=C5CC(OC6OC(CO)C(OC7OC(C)C(OC8OC(C)C(O)C(O)C8O)C(O)C7O)C(O)C6OC6OC(C)C(O)C(O)C6O)CCC5(C)C4CCC3(C)C1(O)C2C [saponin 5, pennogenin 3-O-α-L-rhamnopyranosyl-(1→2)-[α-L-rhamnopyranosyl-(1→4)-α-L-rhamnopyranosyl-(1→4)]-β-D-glucopyranoside]
cell cycle phase with increased proportion of cells compared to DMSO control [7]: S phase
apoptosis rate (induction of apoptosis, in words) [8]: highest apoptosis rate; also recorded: stronger apoptosis than the positive control DOX
IC50 ([1]; Homo sapiens, SK-HEP1): 940 ± 60 nM
IC50 ([2]; Homo sapiens): 1200 ± 100 nM
cell cycle phase with increased proportion of cells compared to DMSO control [9]: S and G2/M phases
IC50 ([3]; Homo sapiens): 1570 ± 10 nM
apoptosis rate (induction of apoptosis, in words) [10]: stronger apoptosis than the positive control DOX
apoptosis rate (induction of apoptosis, in words) ([10]; listed as Saponin 5): strong apoptosis
apoptosis rate (induction of apoptosis, in words) [11]: substantial induction of apoptosis; also recorded: stronger apoptosis than the positive control DOX
IC50 ([4]; Homo sapiens): 900 ± 10 nM
IC50 ([5]; Homo sapiens, L02): 900 ± 20 nM
IC50 ([6]; Homo sapiens): 940 ± 30 nM

Compound: CC1CCC2(OC1)OC1CC3C4CC=C5CC(OC6OC(CO)C(OC7OC(CO)C(O)C7O)C(O)C6OC6OC(C)C(O)C(O)C6O)CCC5(C)C4CCC3(C)C1C2C [saponin 4, diosgenin-3-O-α-L-arabinofuranosyl-(1→4)-[α-L-rhamnopyranosyl-(1→2)]-β-D-glucopyranoside]
cell cycle phase with increased proportion of cells compared to DMSO control [7]: increase in the proportion of cells at the G2/M phase
IC50 ([1]; Homo sapiens, SK-HEP1): 660 ± 40 nM
IC50 ([2]; Homo sapiens): 720 ± 20 nM
increase of proportion of cells in the G2/M phase compared to DMSO control [9]: 17.2%
IC50 ([3]; Homo sapiens): 1590 ± 30 nM
IC50 ([4]; Homo sapiens): 580 ± 10 nM
IC50 ([5]; Homo sapiens, L02): 850 ± 10 nM
IC50 ([6]; Homo sapiens): 1820 ± 90 nM

IC50 ([1]; Homo sapiens, SK-HEP1): < 0.01 µg/mL and < 10 nM
IC50 ([2]; Homo sapiens): 0.12 µg/mL and 180 nM
IC50 ([3]; Homo sapiens): < 0.01 µg/mL and < 10 nM
IC50 ([4]; Homo sapiens): < 0.01 µg/mL and < 10 nM
Compound: CC(=O)O[C@H]1C(=O)[C@@]2(C)[C@H]([C@H](OC(=O)c3ccccc3)[C@]3(O)C[C@H](OC(=O)[C@H](O)[C@@H](NC(=O)c4ccccc4)c4ccccc4)C(C)=C1C3(C)C)[C@]1(OC(C)=O)CO[C@@H]1C[C@@H]2O [Paclitaxel, reference compound]
IC50 ([5]; Homo sapiens, L02): < 10 nM
IC50 ([6]; Homo sapiens): > 5000 nM

Compound: CC1CCC2(OC1)OC1CC3C4CC=C5CC(OC6OC(CO)C(OC7OC(C)C(O)C(O)C7O)C(O)C6OC6OC(C)C(O)C(O)C6O)CCC5(C)C4CCC3(C)C1C2C [saponin 3, diosgenin-3-O-α-L-rhamnopyranosyl-(1→2)-[α-L-rhamnopyranosyl-(1→4)]-β-D-glucopyranoside]
cell cycle phase with increased proportion of cells compared to DMSO control [7]: G0/G1 phase
IC50 ([1]; Homo sapiens, SK-HEP1): 1800 ± 70 nM
IC50 ([2]; Homo sapiens): 2560 ± 80 nM
increase of proportion of cells in S phase compared to DMSO control [9]: 27.5%
IC50 ([3]; Homo sapiens): 3800 ± 50 nM
IC50 ([4]; Homo sapiens): 1690 ± 40 nM
IC50 ([5]; Homo sapiens, L02): 3780 ± 180 nM
IC50 ([6]; Homo sapiens): 3070 ± 190 nM
